This passage reports inhibition of growth, pest or weed control and melting point results from patent US10952436B2, “Microbiocidal quinoline (thio)carboxamide derivatives” (SYNGENTA PARTICIPATIONS AG, priority 2017, dated 2021).

One data set concerns Sclerotinia sclerotiorum. The experiment in a line: Sclerotinia sclerotiorum/Liquid Culture (Cottony Rot). The conditions noted are these: read-out: control of Sclerotinia sclerotiorum.
The test system of data set [1] is Magnaporthe grisea (Pyricularia oryzae). The data set is described as follows: microbe, parasite or virus in culture. The conditions noted are these: read-out: control of Magnaporthe grisea. Type of data set: cell-based.
The test system of data set [2] is Fusarium culmorum. The data set is described as follows: whole plant or invertebrate. Type of data set: in vivo. Particulars: in Triticum aestivum, read-out: control of Fusarium culmorum.
Data set [3] concerns Monographella nivalis (Microdochium nivale). The experiment in a line: Monographella nivalis (Microdochium nivale)/Liquid Culture (Foot Rot Cereals). Type of data set: cell-based. Particulars: 200 ppm, liquid culture, compared to untreated control, 4-5 days after application, read-out: control of Monographella nivalis.
Data set [4] has as its system Magnaporthe grisea (Pyricularia oryzae). The data set is described as follows: whole plant or invertebrate. It is filed as in vivo. Particulars: foliar, read-out: control of Magnaporthe grisea.
Data set [5] relates to Botryotinia fuckeliana (Botrytis cinerea). The experiment in a line: Botryotinia fuckeliana (Botrytis cinerea)/Liquid Culture (Gray Mould). Type of data set: cell-based. Particulars: 200 ppm, liquid culture, compared to untreated control, 3-4 days after application, read-out: control of Botryotinia fuckeliana.
Data set [6] relates to Glomerella lagenarium (Colletotrichum lagenarium). The experiment in a line: Glomerella lagenarium (Colletotrichum lagenarium)/Liquid Culture (Anthracnose). It is filed as cell-based. The conditions noted are these: Colletotrichum orbiculare; 200 ppm; liquid culture, compared to untreated control, 3-4 days after application; read-out: control of Glomerella lagenarium.
Data set [7] has as its system Fusarium culmorum. The data set is described as follows: microbe, parasite or virus in culture. It is filed as cell-based. The conditions noted are these: read-out: control of Fusarium culmorum.
The test system of a further data set is Gaeumannomyces graminis. The experiment in a line: Gaeumannomyces graminis/Liquid Culture (Take-all of Cereals). Type of data set: cell-based. The conditions noted are these: 200 ppm, liquid culture, compared to untreated control, 4-5 days after application, read-out: control of Gaeumannomyces graminis.

SMILES strings stand for the structures.

Protocol for Sclerotinia sclerotiorum: Mycelia fragments of a newly grown liquid culture of the fungus are directly mixed into nutrient broth (Vogels broth). After placing a (DMSO) solution of test compound into a microtiter plate (96-well format) the nutrient broth containing the fungal material is added. The test plates are incubated at 24° C. and the inhibition of growth is determined photometrically 3-4 days after application.

On to `Cc1c(NC(=O)C(C)(Cc2ccccc2)CC(F)(F)F)cnc2c(F)cccc12` (centres unmarked) [Compound E-50, 2-benzyl-4,4,4-trifluoro-N-(8-fluoro-4-methyl-3-quinolyl)-2-methyl-butanamide], for which the melting point is 106 to 109 °C. Moreover, the inhibition of growth at 20 ppm with Sclerotinia sclerotiorum was at least 80%. Further, the inhibition of growth at 200 ppm in data set [1] was at least 80%. In addition, in the data set with Fusarium culmorum [2], the pest or weed control at 200 ppm was at least 80%. For the same compound, the inhibition of growth at 200 ppm in [3] was at least 80%. The pest or weed control at 200 ppm in data set [4] is at least 80%. Also, in data set [5], the inhibition of growth at 200 ppm is at least 80%. In addition, the inhibition of growth at 200 ppm in data set [6] is at least 80%. Besides, the inhibition of growth at 200 ppm in the data set on Fusarium culmorum [7] is at least 80%.
In turn, `C=C(C)CC(C)(Cc1ccccc1)C(=O)Nc1cnc2c(F)cccc2c1C` (centres unmarked) [Compound E-65, 2-benzyl-N-(8-fluoro-4-methyl-3-quinolyl)-2,4-dimethyl-pent-4-enamide] gave a melting point of 105 to 109 °C. Also, the inhibition of growth at 200 ppm in data set [1] was at least 80%. Besides, the inhibition of growth at 200 ppm in data set [3] is at least 80%. The inhibition of growth at 200 ppm in the data set on Gaeumannomyces graminis is at least 80%. In [5], the inhibition of growth at 200 ppm was at least 80%. For the same compound, the inhibition of growth at 200 ppm in data set [6] was at least 80%. In the data set on Fusarium culmorum [7], the inhibition of growth at 200 ppm was at least 80%.
Consider `C=C(C)CC(C)(Cc1ccccc1)C(=O)Nc1cc2cccc(F)c2nc1C` (centres unmarked) [Compound E-66, 2-benzyl-N-(8-fluoro-2-methyl-3-quinolyl)-2,4-dimethyl-pent-4-enamide], for which the inhibition of growth at 200 ppm (in [1]; in [3]; with Gaeumannomyces graminis; in data set [5]; in data set [6]; in the data set on Fusarium culmorum [7]) was at least 80% each time. Besides, the pest or weed control at 200 ppm with Fusarium culmorum [2] is at least 80%.
The compound `CC(F)(F)CC(C)(Cc1ccccc1)C(=O)Nc1cnc2c(F)cccc2c1` (centres unmarked) [Compound E-68, 2-benzyl-4,4-difluoro-N-(8-fluoro-3-quinolyl)-2-methyl-pentanamide] registered a melting point of 156 to 158 °C. The inhibition of growth at 200 ppm in [1] was at least 80%. Also, in the data set with Fusarium culmorum [2], the pest or weed control at 200 ppm was at least 80%. Also, the inhibition of growth at 200 ppm in data set [3] was at least 80%. Also, the inhibition of growth at 200 ppm with Gaeumannomyces graminis was at least 80%. Also, in data set [5], the inhibition of growth at 200 ppm was at least 80%. Further, the inhibition of growth at 200 ppm in data set [6] is at least 80%. Also, the inhibition of growth at 200 ppm in the data set on Fusarium culmorum [7] was at least 80%.
Turning to `CC(C)(Cc1ccccc1)C(=O)Nc1cnc2c(F)cccc2c1` [Compound E-69, N-(8-fluoro-3-quinolyl)-2,2-dimethyl-3-phenyl-propanamide], the pest or weed control at 200 ppm in the data set on Fusarium culmorum [2] is at least 80%. In addition, the inhibition of growth at 200 ppm (in data set [3]; in the data set on Gaeumannomyces graminis; in [5]; in data set [6]; in the data set on Fusarium culmorum [7]) was at least 80% in each case.
Compound `CC1(CC(C)(Cc2ccccc2)C(=O)Nc2cnc3c(F)cccc3c2)CC1` (centres unmarked) [Compound E-70, 2-benzyl-N-(8-fluoro-3-quinolyl)-2-methyl-3-(1-methylcyclopropyl) propanamide] gave a melting point of 149 to 151 °C. Moreover, the inhibition of growth at 200 ppm in data set [1] was at least 80%. Besides, the inhibition of growth at 200 ppm in the data set with Gaeumannomyces graminis is at least 80%. In data set [5], the inhibition of growth at 200 ppm was at least 80%. Moreover, in data set [6], the inhibition of growth at 200 ppm was at least 80%. Further, the inhibition of growth at 200 ppm in the data set on Fusarium culmorum [7] was at least 80%.
Turning to `C=C(F)CC(C)(Cc1ccccc1)C(=O)Nc1cnc2c(F)cccc2c1` (centres unmarked) [Compound E-71, 2-benzyl-4-fluoro-N-(8-fluoro-3-quinolyl)-2-methyl-pent-4-enamide], the melting point fell in the range of 132 to 134 °C. In [1], the inhibition of growth at 200 ppm is at least 80%. Besides, the pest or weed control at 200 ppm in the data set on Fusarium culmorum [2] was at least 80%. In addition, the inhibition of growth at 200 ppm in data set [3] was at least 80%. The inhibition of growth at 200 ppm in the data set on Gaeumannomyces graminis is at least 80%. The inhibition of growth at 200 ppm in data set [5] was at least 80%. Moreover, the inhibition of growth at 200 ppm in data set [6] was at least 80%. Further, the inhibition of growth at 200 ppm in the data set with Fusarium culmorum [7] was at least 80%.
Take `CC(Cc1ccccc1)(CC1CC1(F)F)C(=O)Nc1cnc2c(F)cccc2c1` (centres unmarked) [Compound E-72, 2-benzyl-3-(2,2-difluorocyclopropyl)-N-(8-fluoro-3-quinolyl)-2-methyl-propanamide]: the inhibition of growth at 200 ppm (in data set [1]; in data set [3]; with Gaeumannomyces graminis; in data set [5]; in [6]; with Fusarium culmorum [7]) was at least 80% each time.
With `CC(Cc1ccccc1)(CC1CC1(Cl)Cl)C(=O)Nc1cnc2c(F)cccc2c1` (centres unmarked) [Compound E-75, 2-benzyl-3-(2,2-dichlorocyclopropyl)-N-(8-fluoro-3-quinolyl)-2-methyl-propanamide], the inhibition of growth at 200 ppm (in data set [1]; with Gaeumannomyces graminis; in data set [5]; in data set [6]; in the data set with Fusarium culmorum [7]) was at least 80% in each case.
`CCCC(C)(Cc1ccccc1)C(=O)Nc1cnc2c(F)cccc2c1` (centres unmarked) [Compound E-77, 2-benzyl-N-(8-fluoro-3-quinolyl)-2-methyl-pentanamide]: the inhibition of growth at 200 ppm (in [1]; in [3]; in the data set on Gaeumannomyces graminis; in data set [5]; in data set [6]; in the data set with Fusarium culmorum [7]) was at least 80% in each case. For the same compound, in the data set on Fusarium culmorum [2], the pest or weed control at 200 ppm is at least 80%.
The compound `O=C(Nc1cnc2c(F)cccc2c1)C(Cc1ccccc1)CC(F)(F)F` (centres unmarked) [Compound E-82, 2-benzyl-4,4,4-trifluoro-N-(8-fluoro-3-quinolyl)butanamide] showed a melting point of 161 to 164 °C. The inhibition of growth at 200 ppm in data set [1] is at least 80%. Besides, the pest or weed control at 200 ppm in the data set with Fusarium culmorum [2] is at least 80%. For the same compound, the inhibition of growth at 200 ppm in data set [3] is at least 80%. Also, the inhibition of growth at 200 ppm with Gaeumannomyces graminis is at least 80%. Also, the inhibition of growth at 200 ppm in data set [5] is at least 80%. Besides, the inhibition of growth at 200 ppm in data set [6] is at least 80%. For the same compound, the inhibition of growth at 200 ppm in the data set on Fusarium culmorum [7] was at least 80%.
Turning to `CC(C)CC(C#N)(Cc1ccccc1)C(=O)Nc1cnc2c(F)cccc2c1` (centres unmarked) [Compound E-83, 2-benzyl-2-cyano-N-(8-fluoro-3-quinolyl)-4-methyl-pentanamide], the inhibition of growth at 200 ppm (in [1]; in data set [3]; with Gaeumannomyces graminis; in [5]; in data set [6]; in the data set with Fusarium culmorum [7]) was at least 80% in each case. Further, in the data set with Fusarium culmorum [2], the pest or weed control at 200 ppm is at least 80%.
For the compound `CC(C)CC(C)(Cc1ccccc1)C(=O)Nc1cnc2ccccc2c1` (centres unmarked) [Compound E-85, 2-benzyl-2,4-dimethyl-N-(3-quinolyl)pentanamide], the melting point fell in the range of 147 to 148 °C. Moreover, the inhibition of growth at 200 ppm in the data set on Gaeumannomyces graminis is at least 80%. For the same compound, the inhibition of growth at 200 ppm in data set [5] was at least 80%. For the same compound, the inhibition of growth at 200 ppm in data set [6] was at least 80%. In the data set on Fusarium culmorum [7], the inhibition of growth at 200 ppm was at least 80%.
`CC1(C[C@](C)(Cc2ccccc2)C(=O)Nc2cnc3c(F)cccc3c2)CC1` [Compound F-9, (2R)-2-benzyl-N-(8-fluoro-3-quinolyl)-2-methyl-3-(1-methylcyclopropyl) propanamide] registered a melting point of 62 to 64 °C. For the same compound, in the data set on Sclerotinia sclerotiorum, the inhibition of growth at 20 ppm is at least 80%. The inhibition of growth at 200 ppm in data set [1] was at least 80%. In the data set with Fusarium culmorum [2], the pest or weed control at 200 ppm was at least 80%. In data set [3], the inhibition of growth at 200 ppm is at least 80%. Moreover, the pest or weed control at 200 ppm in [4] is at least 80%. Further, the inhibition of growth at 200 ppm in data set [5] is at least 80%. The inhibition of growth at 200 ppm in data set [6] is at least 80%. Also, the inhibition of growth at 200 ppm with Fusarium culmorum [7] was at least 80%.
`Cc1nc2c(F)cccc2cc1NC(=O)[C@@](C)(Cc1ccccc1)CC(F)(F)F` [Compound F-12, (2S)-2-benzyl-4,4,4-trifluoro-N-(8-fluoro-2-methyl-3-quinolyl)-2-methyl-butanamide] showed a melting point of 135 to 136 °C. In addition, the inhibition of growth at 20 ppm in the data set with Sclerotinia sclerotiorum was at least 80%. The inhibition of growth at 200 ppm in data set [1] was at least 80%. Besides, the pest or weed control at 200 ppm in the data set with Fusarium culmorum [2] was at least 80%. Besides, the inhibition of growth at 200 ppm in data set [3] is at least 80%. For the same compound, the pest or weed control at 200 ppm in [4] is at least 80%. Also, in data set [5], the inhibition of growth at 200 ppm is at least 80%. For the same compound, the inhibition of growth at 200 ppm in data set [6] is at least 80%. Moreover, in the data set with Fusarium culmorum [7], the inhibition of growth at 200 ppm was at least 80%.
For the compound `CC(C)C[C@@](C)(Cc1ccccc1)C(=O)Nc1cnc2c(F)cccc2c1` [Compound F-20, (2S)-2-benzyl-N-(8-fluoro-3-quinolyl)-2,4-dimethyl-pentanamide], the pest or weed control at 200 ppm in the data set with Fusarium culmorum [2] is at least 80%. The inhibition of growth at 200 ppm (in data set [3]; in the data set with Gaeumannomyces graminis; in [5]; in [6]; in the data set with Fusarium culmorum [7]) was at least 80% in each case.

In general, melting point refers to the temperature, or range, at which the solid turns liquid.
